“And” between values parts separate entries of the source, which are not always exact repeats. Equal values may be shown once. Read-outs that look alike come from different tables or passages of the source. Where no end group is shown, it is not given here. The star is where a group is joined. 125I = [125I]*

In one series the target is T1, p65 subunit of NFkB (Rattus norvegicus, UniProt Q7TQN4).
T1 construct: endogenous in cells; host or cells: PC12 (soluble cell extract)
In words: Chemical cross-linking of 125I-Y-R3 to 65 kDa species in PC12 soluble extract, displacement by unlabeled peptide. It is filed as binding. Particulars: for Displacement of radiolabel from 65 kDa band: 0.5 μM 125I-Y-R3, 150-fold molar excess of unlabeled peptide, densitometric scanning. Here is the method:
Y-R3 (5 μg) was labeled with 1 mCi of Na^125I (Amersham) using iodobeads (Pierce) in 50 mM sodium phosphate buffer, as described in Part A. ^125I-Y-R3 (0.5 μM) was incubated with PC12 cell extract (prepared as above) or affinity purified proteins at pH 7.0, with and without a 150-fold molar excess of competing unlabeled peptide for 2 hrs at 4° C. At that time, EDC (Pierce) and NHS (Pierce) were added to a final concentration of 2 mM each and the reaction allowed to proceed for 30 min at room temperature. The reaction was quenched by adding Tris-HCl to a final concentration of 50 mM. An aliquot was removed and mixed with 4 volumes of SDS sample buffer for SDS-PAGE and the remainder subjected to immunoprecipitation.
Cell extract or R3 affinity purified material was incubated for 4 hrs at 4° C. with 5 μl of agarose conjugated goat anti-NFkB p65 (Santa Cruz). The gel was washed at 4° C. with 5×1 ml of HKR containing 1% NP40, followed by a final wash without detergent. SDS reducing sample buffer was added to the gel and the samples were heated at 95° C. for 5 minutes prior to electrophoresis as described above.
To examine the structural specificity of the interaction of R3 peptide with the 65 kDa species, PC12 cell soluble extract was chemically cross-linked with 0.5 μM ^125I-Y-R3 in the absence and presence of a 150-fold molar excess of unlabeled R9 or R10. […] The reaction mixtures were separated by SDS-PAGE, followed by autoradiography.

The test system of series [1] is PC12 cells. It is filed as cell-based, rat. Here is the method:
Labeling of all tyrosinated peptides for uptake studies were carried out using IODO-BEADS™ (Pierce). Briefly, 5 μg of the desired peptide was iodinated at pH 7.4, at room temperature, and separated from free iodide by selective elution from a C-18 SEP PAK LIGHT™ (Waters-Millipore) in 80% CH3CN, 1.0% trifluoroacetic acid. The solvent was removed at room temperature under a stream of nitrogen. Specific activity of labeled peptide was 50-65 cpm-pg^−1.
Stock solutions of [^125I]-labeled peptides (final concentration […], specific activity 50-800 cpm·pmol^−1) were prepared in RPMI medium with 10% fetal calf serum. Uptake was initiated by adding the peptide to the cell suspension in RPMI 1640 with 10% fetal calf serum, maintained at 37° C. Cell-associated label was determined by counting the cell pellet obtained by microcentrifuging an aliquot (100 μl containing 1-3×10^5 cells) of the cell suspension through a layer of silicone oil. The silicone oil was 3:1 mixture of dibutyl phthalate:dinonyl phthalate (Fluke Chemie, Switzerland) with a density of 1.027 (Drevon et al., 1977).
The uptake versus were corrected for “adsorption” of peptides to the cell surface at zero time. This was assessed by determining label that remained associated with cells removed immediately after the addition of [^125I]-peptide and washed by 2 cycles of centrifugation at […] for 5 minutes and resuspension in peptide-free tissue culture medium. At the indicated times, cold chase values were obtained by removing an aliquot (500 μl) of the cell suspension for centrifugation at 150×g for 5 minutes, followed by resuspension in its initial volume of RPMI+10% fetal calf serum containing 50 μM (10×original) unlabeled peptide. The cell suspension was then returned at 37° C. for a further 30 minutes. At the end of this time, cell-associated label was determined as above.

Series [2] has as its system PC12 cells. In words: NGF-mediated neurite growth by PC12 cells. It is filed as cell-based, rat. Particulars: PC12 cells, peptide co-incubated with NGF. Here is the method: PC12 cells or PC12^nnr5 cells (Loeb et al., 1991) were seeded on poly-D-lysine-coated (0.1 mg·ml^−1, overnight) 96-well microculture dishes (Falcon) at approximately 800 cells per well with RPMI with 10% fetal calf serum. Peptides were added to replicate wells 48 hours before, or at the time of, addition of NGF. NGF was prepared by the method of Mobley et al. (1976) and used at 1-2 nM. Other additives were diluted at least 100-fold and added to the wells as described. At various times following incubation at 37° C., 5% CO2, wells were scored for neurite-bearing cells by serial counting of representative circumferences of each well.
A Leitz Diavert inverted microscope with phase optics was used to score neurite growth. For both PC12 cells and sensory neurons, a neurite was scored as such if its calibre from origin to terminal was approximately the same and the length was equal to or greater than 1.5 cell body diameters.

A further series relates to c-fos mRNA. Particulars: one-hour exposure.
Series [3] relates to PC12 cells. Put plainly: Cytotoxicity in PC12 cultures. Particulars: concentration of 50 μM.
The subject of the next series is ED8 chick DRG neurons. Put plainly: NGF-mediated neurite growth by ED8 chick DRG sensory neurons. It is filed as cell-based. Particulars: for Neurite growth in control wells: 16-20 hours; for % of Control Response DRG: (peptide with NGF − NGF alone)/(R3 with NGF − NGF alone) ×100, scored at 43, 44 and 48 hours, M ± SEM, n = 3 assays; for Reduction (loss) of biological effect relative to R3 on enhancement of NGF-mediated neurite growth: DRG cells, 40-50 hours in vitro.

The target of series [4] is T2, p65 subunit of transcription factor NFkB from PC12 cell soluble extract (rat, UniProt Q7TQN4 1-550).
T2 construct: also called NFkB p65; 65 kDa species
In words: affinity chromatography of PC12 soluble extract on R3 matrix, SDS-PAGE, silver stain. Here is the method: PC12 cells were harvested and washed by 3 cycles of resuspension and centrifugation in Ca^2+, Mg^2+-free Gey's Balanced Salt Solution (CMF). […] The column was then washed with 10 bed volumes of homogenizing buffer and 10 bed volumes of detergent-free homogenizing buffer. The bound material was then eluted with 0.5 mg/ml R3 peptide. The eluate was dialyzed (3500 cut off) extensively against 10 mM sodium phosphate pH 7.4 and taken to dryness under reduced pressure on a Speed Vac (Savant).
A soluble extract of PC12 cells was applied to the R3 affinity resin. […] A similar profile was obtained when extracts from "primed" (exposed to 100 ng/ml NGF for 10 days) PC12 cells, PC12^nnr5 cells or ED9 chick brain were used.

Series [5] concerns the target T2, p65 subunit of transcription factor …. In words: chemical cross-linking (EDC/NHS) of 125I-Y-R3 to PC12 soluble extract, SDS-PAGE, autoradiography. Here is the method: (§1) At that time, EDC (Pierce) and NHS (Pierce) were added to a final concentration of 2 mM each and the reaction allowed to proceed for 30 min at room temperature. The reaction was quenched by adding Tris-HCl to a final concentration of 50 mM. An aliquot was removed and mixed with 4 volumes of SDS sample buffer for SDS-PAGE and the remainder subjected to immunoprecipitation.

Series [6] shares this target. In words: competition of unlabeled R3 against 125I-Y-R3 cross-linking to the 65 kDa protein. Here is the method:
as §1
The p65 subunit of NFkB was detected in PC12 soluble extracts and in the R3-affinity purified material (FIG. 9A). This 65 kDa protein could also be specifically cross-linked to the iodinated probe for the intracellular domain of P75^NTR, the interaction being displaced by a 150-fold molar excess of unlabeled peptide, and the complex immunoprecipitated by antibodies to the transcription factor (FIGS. 9B and […]).

The mark [7] stands for this setting: 10 μM peptide in solution, no additive to culture medium.
[8] abbreviates: time course of association with PC12 cells.

T1 sequence (Q7TQN4 whole entry): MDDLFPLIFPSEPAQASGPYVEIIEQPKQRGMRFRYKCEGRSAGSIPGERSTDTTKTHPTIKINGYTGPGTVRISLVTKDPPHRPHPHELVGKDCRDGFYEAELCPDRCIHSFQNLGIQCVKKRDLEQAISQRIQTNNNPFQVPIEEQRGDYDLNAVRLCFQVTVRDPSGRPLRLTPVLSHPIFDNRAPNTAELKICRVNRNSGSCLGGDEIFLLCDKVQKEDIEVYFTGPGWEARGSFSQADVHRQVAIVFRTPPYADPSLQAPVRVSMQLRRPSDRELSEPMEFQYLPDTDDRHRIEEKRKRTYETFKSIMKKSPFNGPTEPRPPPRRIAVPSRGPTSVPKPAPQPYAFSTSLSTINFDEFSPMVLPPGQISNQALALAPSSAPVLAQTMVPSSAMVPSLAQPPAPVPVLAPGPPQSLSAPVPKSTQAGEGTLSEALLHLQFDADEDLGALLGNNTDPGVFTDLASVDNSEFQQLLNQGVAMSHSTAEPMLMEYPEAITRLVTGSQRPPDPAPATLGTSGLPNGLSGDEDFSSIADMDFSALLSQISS
T2 sequence (Q7TQN4 whole entry): as above

Regarding “Y-R3: tyrosinated peptide analogue of R3, N-terminal tyrosine (Sequence ID No. 6); radio-iodinated for uptake and cross-linking (YLDALLAALRRIQR; also: radio-iodinated)”, the “Interaction with 65 kDa species by chemical cross-linking, in words” value with p65 subunit of NFkB (soluble PC12 extract) is “interacted specifically”. Further, the “Uptake at full saturation” value in the series on PC12 cells [1] is on record as 20 pmol/10^6 cells. Besides, the “Time at half-maximal uptake” value with PC12 cells [1] (setting [7]) is on record as 30 min; in the series with PC12 cells [1] (10 μM peptide, MgCl2 (10 mM) added to culture medium) it was 30 min. The “Time for which label remained resistant to chase by excess unlabeled R3” value in the series with PC12 cells [1] (cold chase) is on record as “up to 50 hours”. In addition, the “Time at which uptake was half-maximally saturated” value in the series with PC12 cells [1] (setting [8]) amounted to 30 min. The “Time to full saturation of uptake” value with PC12 cells [1] (setting [8]) fell in the range of 10 to 20 h.
Take mastoparan [MP]: the “Effect on NGF-mediated neurite growth, co-incubation, in words” value in the series with PC12 cells [2] is listed as “did not significantly influence”. The “Effect on NGF-mediated c-fos mRNA induction, in words” value in the series on c-fos mRNA is “stimulatory effect”. Moreover, in the series with PC12 cells [3], the “Cytotoxicity, in words” value is on record as “cytotoxic”.
“R4: hybrid: R3 linked via its amino terminus to an 11-amino acid peptide homologue of the inner transmembrane domain of p75^NTR (Sequence ID No. 7) (VVVGLVAYIAFLDALLAALRRIQR)”: the “Effect on NGF-mediated neurite growth, co-incubation, in words” value with PC12 cells [2] was “did not enhance NGF-mediated neurite growth”. For the same molecule, the “Cell association resistant to chase (uptake), in words” value with PC12 cells [1] is listed as “did not suggest an uptake process”. In the series with PC12 cells [1] (setting [7]), the “Time at half-maximal uptake” value is 0 min.
As to nerve growth factor [NGF], the “Neurite growth in control wells” value in the series with ED8 chick DRG neurons (NGF 0.04 pM alone) worked out at 5.5±2.1; in the series with ED8 chick DRG neurons (NGF 0.4 pM alone) it was 14.0±6.1; in the series on ED8 chick DRG neurons (NGF 4 pM alone), 31.7±8.7; in the series with ED8 chick DRG neurons (NGF 40 pM alone), 44.8±8.6.
LDALLAALRAIQR [R9]: the “Displacement of radiolabel from 65 kDa band” value in the series with p65 subunit of NFkB amounted to 76%. In the series on ED8 chick DRG neurons, the “% of Control Response DRG” value is 61 ± 1^(5) % and the “Reduction (loss) of biological effect relative to R3 on enhancement of NGF-mediated neurite growth” value is “approximately 40%”. Moreover, the “Activity relative to R3 in influencing NGF-mediated neurite growth” value in the series with ED8 chick DRG neurons (in vitro) is 50-60% and 61%.
For the molecule LDALLAALRRRQR [R10], the “Displacement of radiolabel from 65 kDa band” value with p65 subunit of NFkB was determined as 43%. Also, in the series on ED8 chick DRG neurons, the “% of Control Response DRG” value is recorded as 29 ± 4^(5) % and the “Reduction (loss) of biological effect relative to R3 on enhancement of NGF-mediated neurite growth” value is “approximately 70%”.

B1: R3 affinity matrix peptide (R3 with six residues added to the N-terminus, coupled to Aminolink agarose) (peptide)
peptide: KAYIAFLDALLAALRRIQR
modifications: also: coupled at pH 7.0 to Aminolink agarose
notes: Immobilised on agarose beads in the assay
In the case of B1, the binding result in series [4] is “binds”.

B2: 125I-Y-R3 (R3 peptide with N-terminal tyrosine, radio-iodinated) (peptide)
peptide: Y(125I)LDALLAALRRIQR
notes: Used at 0.5 uM in cross-linking with EDC/NHS; also called tyrosinated peptide analogue of R3; iodinated probe for the intracellular domain of p75NTR
As for B2, the binding result in series [5] is on record as “binds”.
For LDALLAALRRIQR (also called peptide R3; unlabeled R3) [R3 peptide (synthetic peptide identical to rat p75NTR 367-379)], the binding result in series [6] is “binds”.

The values above are taken from US6417159B1 (Queen's University at Kingston, priority 1996, dated 2002).
